Reference: patent US20060276464A1, “Diarylsulfone sulfonamides and use thereof” (Wyeth, priority 2005, published 2006)
Like-named read-outs stand apart in the source and are kept apart here.

Legend:
[1] = target: T1, SFRP-1 (Homo sapiens, UniProt Q8N474); test: Cell-based assay for in vitro measurement of SFRP-1/SARP2 antagonist activity (U2OS cells co-transfected with 16x TCF-tk-Luciferase reporter, Wnt and hSFRP-1); details: for fold induction at 15 µM / fold induction at 10 µM: U2OS; for fold induction at 10 µM: read-out: Fold Induction with SFRP-1, U2OS cells, single dose 10 μM, luciferase reporter, fold induction over SFRP-1 control;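 as to all read-outs here: U2OS cells co-transfected with a TCF-tk luciferase reporter, a Wnt vector, hSFRP-1 or empty vector and CMV-βgal, luciferase luminescence read in cell lysates alongside βgal activity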
T1 sequence (Q8N474 32-314): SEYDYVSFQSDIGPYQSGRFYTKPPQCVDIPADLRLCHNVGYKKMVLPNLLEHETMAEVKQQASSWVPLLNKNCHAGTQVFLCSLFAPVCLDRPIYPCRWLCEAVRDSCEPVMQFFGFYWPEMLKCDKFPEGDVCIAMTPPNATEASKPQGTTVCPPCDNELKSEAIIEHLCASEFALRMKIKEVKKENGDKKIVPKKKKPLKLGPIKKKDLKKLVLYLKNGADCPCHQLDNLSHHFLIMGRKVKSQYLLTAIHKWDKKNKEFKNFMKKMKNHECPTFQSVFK

[2] = target: T1, SFRP-1; test: Fluorescence polarization binding assay (competitive displacement of a probe compound from SFRP-1); details: fluorescence anisotropy, 45 nM SFRP-1, 20 nM probe;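 also: test compound competes with a fluorescent probe held by SFRP-1, seen as a drop in probe anisotropy after incubation in darkness, with anisotropy as function of rising compound dose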
[3] = read-out: Fold Induction with SFRP-1, Conc 15 μM, with SFRP-1, fold induction over SFRP-1 control, single dose
[4] = read-out: Fold Induction without SFRP-1, Conc 15 μM, without SFRP-1, single dose
[5] = read-out: Fold Induction with SFRP-1, Conc 15 μM, single dose, luciferase reporter, fold induction over SFRP-1 control, cells with SFRP-1
[6] = read-out: Fold Induction without SFRP-1, Conc 15 μM, single dose, luciferase reporter, cells without SFRP-1 (specificity control)

SMILES | fold induction at 15 µM [1, 3] | fold induction at 15 µM [1, 4] | IC50 [2] [nM] | fold induction at 10 µM [1] | EC50 [1] [nM] | fold induction at 15 µM [1, 5] | fold induction at 15 µM [1, 6]
Cc1ccc(S(=O)(=O)c2ccccc2)cc1S(=O)(=O)NC1CCN(C(=O)C2CCCCC2)CC1 [Example 471, N-[1-(cyclohexylcarbonyl)piperidin-4-yl]-2-methyl-5-(phenylsulfonyl)benzenesulfonamide] | 2.1 | 1.1 | 2200 | – | – | – | –
CC(CO)NS(=O)(=O)c1cc(S(=O)(=O)c2ccc(F)cc2)ccc1C(C)C (stereo not shown) [Example 733, 5-[(4-fluorophenyl)sulfonyl]-N-(2-hydroxy-1-methylethyl)-2-isopropylbenzenesulfonamide] | – | – | 10000 | 2.5 | – | – | –
O=S(=O)(NCC(O)c1ccccc1)c1cc(S(=O)(=O)c2ccccc2)ccc1C(F)(F)F (stereo not shown) [Example 682, N-(2-hydroxy-2-phenylethyl)-5-(phenylsulfonyl)-2-(trifluoromethyl)benzenesulfonamide] | – | – | 250 | 1.2 | 765 | – | –
Cc1ccc(S(=O)(=O)c2ccc(NCc3ccccc3)cc2)cc1S(=O)(=O)NCCCn1ccnc1 [Example 370, 5-{[4-(benzylamino)phenyl]sulfonyl}-N-[3-(1H-imidazol-1-yl)propyl]-2-methylbenzenesulfonamide] | 1.8 | 0.8 | 500 | – | – | – | –
CN(CCNS(=O)(=O)c1cc(S(=O)(=O)c2ccccc2)ccc1C(F)(F)F)C(=O)Nc1cccnc1 [Example 827, N-(2-{methyl[(pyridin-3-ylamino)carbonyl]amino}ethyl)-5-(phenylsulfonyl)-2-(trifluoromethyl)benzenesulfonamide] | – | – | 250 | 3.5 | 1710 | – | –
O=S(=O)(NC1CCN(S(=O)(=O)c2ccc(O)cc2)CC1)c1cc(S(=O)(=O)c2ccccc2)ccc1C(F)(F)F [Example 914, N-{1-[(4-hydroxyphenyl)sulfonyl]piperidin-4-yl}-5-(phenylsulfonyl)-2-(trifluoromethyl)benzenesulfonamide] | – | – | 80 | 4.5 | 541 | – | –
O=S(=O)(NCCc1cccnc1)c1cc(S(=O)(=O)c2cccc(Cl)c2)ccc1C(F)(F)F [Example 755, 5-[(3-chlorophenyl)sulfonyl]-N-(2-pyridin-3-ylethyl)-2-(trifluoromethyl)benzenesulfonamide] | – | – | 160 | 3.8 | 1430 | – | –
CNc1ccc(S(=O)(=O)c2ccc(C(C)C)c(S(=O)(=O)NC3CCN(C(=O)OC(C)(C)C)CC3)c2)cc1 [Example 528, tert-butyl 4-{[(2-isopropyl-5-{[4-(methylamino)phenyl]sulfonyl}phenyl)sulfonyl]amino}piperidine-1-carboxylate] | – | – | 300 | – | – | 2.5 | 1.1
CCc1ccc(S(=O)(=O)c2ccccc2)cc1S(=O)(=O)NCCCN(CC)CC [Example 230, N-[3-(diethylamino)propyl]-2-ethyl-5-(phenylsulfonyl)benzene sulfonamide] | 3.2 | 1.2 | 16000 | – | – | – | –
O=C(O)c1cccc(NC(=S)N2CCC(NS(=O)(=O)c3cc(S(=O)(=O)c4ccccc4)ccc3C(F)(F)F)CC2)c1 [Example 855, 3-({[4-({[5-(phenylsulfonyl)-2-(trifluoromethyl)phenyl]sulfonyl}amino)piperidin-1-yl]carbonothioyl}amino)benzoic acid] | – | – | 40 | 3.4 | 137 | – | –
Cc1cc(C)c(S(=O)(=O)c2ccccc2)cc1S(=O)(=O)NC1CCNCC1 [Example 923, 2,4-dimethyl-5-(phenylsulfonyl)-N-piperidin-4-ylbenzenesulfonamide] | – | – | 10000 | 2.4 | 1870 | – | –
CN(CCNS(=O)(=O)c1cc(S(=O)(=O)c2ccccc2)ccc1C(F)(F)F)C(=O)c1cccnc1Cl [Example 851, 2-Chloro-N-methyl-N-[2-({[5-(phenylsulfonyl)-2-(trifluoromethyl)phenyl]sulfonyl}amino)ethyl]nicotinamide] | – | – | 400 | 3.6 | 1510 | – | –
O=C(O)CCC(=O)N1CCC(CNS(=O)(=O)c2cc(S(=O)(=O)c3ccccc3)ccc2C(F)(F)F)CC1 [Example 902, 4-oxo-4-{4-[({[5-(phenylsulfonyl)-2-(trifluoromethyl)phenyl]sulfonyl}amino)methyl]piperidin-1-yl}butanoic acid] | – | – | 180 | 3 | 636 | – | –
O=S(=O)(NCCc1ccc(O)cc1)c1cc(S(=O)(=O)c2ccccc2)ccc1C(F)(F)F [Example 943, N-[2-(4-hydroxyphenyl)ethyl]-5-(phenylsulfonyl)-2-(trifluoromethyl)benzenesulfonamide] | – | – | 400 | 3.4 | 569 | – | –
N#CCCNS(=O)(=O)c1cc(S(=O)(=O)c2ccccc2)ccc1C(F)(F)F [Example 679, N-(2-cyanoethyl)-5-(phenylsulfonyl)-2-(trifluoromethyl)benzenesulfonamide] | – | – | 250 | 3.4 | 449 | – | –
COC(=O)COc1ccc2c(c1)CC(NS(=O)(=O)c1cc(S(=O)(=O)c3ccccc3)ccc1C(F)(F)F)C2 (stereo not shown) [Example 1028, methyl{[2-({[5-(phenylsulfonyl)-2-(trifluoromethyl)phenyl]sulfonyl}amino)-2,3-dihydro-1H-inden-5-yl]oxy}acetate] | – | – | 60 | – | 87 | – | –
Cc1ccc(S(=O)(=O)c2ccccc2)cc1S(=O)(=O)NC1CCN(C(=O)NC(C)(C)C)CC1 [Example 490, N-(tert-butyl)-4-({[2-methyl-5-(phenylsulfonyl)phenyl]sulfonyl}amino)piperidine-1-carboxamide] | – | – | 2300 | – | – | 1.7 | 1
COc1ccc(S(=O)(=O)c2ccc(C)c(S(=O)(=O)NCCc3ccccn3)c2)c(OC)c1 [Example 423, 5-[(2,4-dimethoxyphenyl)sulfonyl]-2-methyl-N-(2-pyridin-2-ylethyl)benzenesulfonamide] | 2.4 | 1.1 | 10000 | – | – | – | –
CN(CCNS(=O)(=O)c1cc(S(=O)(=O)c2ccccc2)ccc1C(F)(F)F)C(=O)C(C)(C)C [Example 852, N,2,2-trimethyl-N-[2-({[5-(phenylsulfonyl)-2-(trifluoromethyl)phenyl]sulfonyl}amino)ethyl]propanamide] | – | – | 300 | 3.3 | 1650 | – | –
O=C(c1ccc(C(F)(F)F)cc1)N1CCC(NS(=O)(=O)c2cc(S(=O)(=O)c3ccccc3)ccc2Cl)CC1 [Example 658, 2-chloro-5-(phenylsulfonyl)-N-{1-[4-(trifluoromethyl)benzoyl]piperidin-4-yl}benzenesulfonamide] | – | – | 800 | 2.6 | 6350 | – | –
CCCc1ccc(S(=O)(=O)c2ccc(F)cc2)cc1S(=O)(=O)NCC1CCOCC1 [Example 561, 5-[(4-Fluorophenyl)sulfonyl]-2-propyl-N-(tetrahydro-2H-pyran-4-ylmethyl)benzenesulfonamide] | – | – | 1400 | – | – | 2.3 | 0.9
CC(C)c1ccc(S(=O)(=O)c2ccc(F)cc2)cc1S(=O)(=O)NCCC1CCOCC1 [Example 322, 5-[(4-fluorophenyl)sulfonyl]-2-isopropyl-N-(2-tetrahydro-2H-pyran-4-ylethyl)benzenesulfonamide] | 2.5 | 1.1 | 600 | – | – | – | –
CCCc1ccc(S(=O)(=O)c2ccccc2)cc1S(=O)(=O)NCCC1CCOCC1 [Example 553, 5-(Phenylsulfonyl)-2-propyl-N-[2-(tetrahydro-2H-pyran-4-yl)ethyl]benzenesulfonamide] | – | – | 3000 | – | – | 2.5 | 1.1
O=C(c1ccc(C(F)(F)F)c(F)c1)N1CCC(NS(=O)(=O)c2cc(S(=O)(=O)c3ccccc3)ccc2C(F)(F)F)CC1 [Example 711, N-{1-[3-fluoro-4-(trifluoromethyl)benzoyl]piperidin-4-yl}-5-(phenylsulfonyl)-2-(trifluoromethyl)benzenesulfonamide] | – | – | 300 | 3.3 | 9400 | – | –
CCOC(=O)CNC(=O)N(C)CCNS(=O)(=O)c1cc(S(=O)(=O)c2ccccc2)ccc1C(F)(F)F [Example 882, ethyl N-({methyl[2-({[5-(phenylsulfonyl)-2-(trifluoromethyl)phenyl]sulfonyl}amino)ethyl]amino}carbonyl)glycinate] | – | – | 80 | 3.4 | 627 | – | –
CC(C)c1ccc(S(=O)(=O)c2ccc(N3C[C@@H](C)N[C@@H](C)C3)cc2)cc1S(=O)(=O)NC1CCOCC1 [Example 626, 5-({4-cis-3,5-dimethylpiperazin-1-ylphenyl}sulfonyl)-2-isopropyl-N-(tetrahydro-2H-pyran-4-yl)benzenesulfonamide] | – | – | 4000 | – | – | 2.9 | 1.1
